Test results reported in publication PMC10334471, “Tumor-targeted dual-action NSAID-platinum(IV) anticancer prodrugs” (Inorganic Chemistry Frontiers, 2023).

Columns and labels:
[1] = test system: CT26 allografts; format: in vivo; settings: Asa 50 mg kg^−1 p.o.
Method: (§1) All experiments were executed according to the regulation of the Ethics Committee for the Care and Use of Laboratory Animals at the Medical University Vienna. 8–12 weeks old BALB/c were kept in a pathogen-free environment with a 12 h light dark-cycle with ad libitum access to food and water. Every procedure was performed in a laminar airflow under sterile condition. Tumor growth and possible side effects of drug treatment were evaluated by daily recording the tumor size by caliper measurement according to the formula length × width^2/2 and parameters of the animal's overall health conditions.
(§2) CT26 cells (5 × 10^5 cells in 50 μl serum-free medium) were injected s.c. into the right flank of female BALB/c mice. […] Asa was treated orally using 50 mg kg^−1 in 5% DMSO/0.9% NaCl. Every day, the animals were monitored for the overall health conditions. Additionally, tumor size was measured. In case of a decreased body weight of ∼20% or ulcerated tumors, animals were sacrificed by cervical dislocation and tumors as well as organs were collected.

[2] = test system: CT26 allografts; assay: Oral anticancer activity in CT26 allografts; format: in vivo, Balb/c mice
Method: It is well known that COX-2 is involved in the paracrine signaling between immune cells, resulting in a pro-tumorigenic tumor microenvironment.[10,33] Consequently, we got interested in the impact of the Asa ligand on the anticancer activity of the drugs in vivo. […] As Asa is clinically applied p.o., we tested the efficacy of OxAsaOAc and asplatin in an oral application setting. […] For the therapy experiment, the animals were treated with OxAsaOAc and asplatin for five subsequent days over two weeks.
as §1

[3] = Hydrolysis of Asa spiked in fresh murine blood (HPLC-MS); settings: after 30 min blood clotting and serum extraction
Method: To this end, we spiked Asa in fresh murine blood, isolated the serum, applied the extraction protocol and measured the samples via HPLC-MS.
The extraction method for acetylsalicylic acid and salicylic acid from Grobecker and coworkers was used.[26] For method validation and quantification, 99 μl mouse serum were spiked with Asa or salicylic acid dissolved in 1 μl DMSO in order to obtain a range of concentrations from 1 to 100 μM. Immediately afterwards the samples were acidified with 100 μl HCl/H3PO4 (0.1 M each) and extracted via addition of 600 μl of acetonitrile. After vigorous shaking for 1 min the suspension was stored at 4 °C for ten minutes before being centrifuged at 9500g for 10 min. The supernatant was taken up with a pipette and transferred into an Eppendorf tube with approx. 100 mg of solid NaCl. After vigorous shaking, the samples were again stored at 4 °C for 5 min and centrifuged at 9500 g for 5 min. The organic layer was taken up and measured on an Agilent 1260 Infinity II system using a Waters Acquity UPLC BEH C18 1.7 μm 3.0 × 50 mm column coupled to an Agilent InfinityLab LC/MSD mass spectrometer in negative mode. Milli-Q water, containing 0.1% formic acid, and acetonitrile containing 0.1% formic acid were used as eluents. A gradient of 5–95% acetonitrile in 6 min was used.

[4] = Stability in aqueous buffer pH 7.4 (HPLC); format: physicochemical; settings: for Stability in aqueous solution: 1 mM, 250 mM phosphate buffer pH 7.4, 20 °C, 25 h, HPLC
Method: (§3) Phosphate buffer (250 mM, pH 7.4) containing 1 mM platinum compound was incubated at 20 °C, with and without the addition of 10 eq. L-ascorbic acid. […] A gradient of 5–95% over 5 minutes was used. To evaluate the current state of the reaction, the peak area of the parental complex was used.

[5] = Reduction kinetics with 10 eq. ascorbic acid (UHPLC); format: physicochemical
Method: as §3

[6] = Released salicylic acid in serum of mice after single i.v. administration (UHPLC-MS)
Method: After 10 min, 1 h and 24 h blood was collected via the facial vein. Serum was isolated by centrifugation at 900 g for 10 min for two times and stored at −80 °C. Platinum content was detected by ICP-MS measurements, using an Agilent 7800 (Agilent Technologies, Tokyo, Japan) equipped with an Agilent SPS 4 autosampler (Agilent Technologies, Tokyo, Japan) and a MicroMist nebulizer. The Agilent MassHunter software package (Workstation Software, Version C.01.04, 2018) was used for data evaluation. The ICP-MS operation parameters are given in Table S1. ^† Salicylic acid was extracted and detected as described above.

[7] = test system: Caco-2; assay: MTT assay, 72 h, Caco-2; format: cell-based; settings: Caco-2, MTT, 72 h treatment, mean ± SD
Method: (§4) All cell cultures were grown at 37 °C in a humidified atmosphere containing 5% CO2. HCT116, RKO and HT-29 cells were cultured in McCoy's 5A Modified Media (Sigma-Aldrich, St. Louis, MO, USA) supplemented with 10% heat-inactivated fetal calf serum (FCS, PAA, Linz, Austria) and 2 mM glutamine (Sigma-Aldrich, St. Louis, MO, USA). The murine (Balb/c) colon cancer cell model CT26 (purchased from American Type Culture Collection, Manassas, VA, USA) were cultured in DMEM/F12 supplemented with 10% fetal calf serum (FCS). SW480 and Caco-2 cells were cultured in MEME media supplemented with 10% and 20% FCS, respectively. All cell culture media and reagents were purchased from Sigma-Aldrich Austria. […] The cells were regularly checked for Mycoplasma contamination.
(§5) Depending on their proliferation rate, cells were seeded at a density of 3500–5000 cells per well in 96-well microtiter plates and allowed to adhere overnight. […] Cell viability was determined using the 3-(4,5-dimethylthiazol-2-yl)-2,5-diphenyltetrazolium bromide (MTT) assay (EZ4U, Biomedia, Vienna, Austria) according to the manufacturer's recommendation. Depending on the metabolic capacity, the cell lines were incubated between one and three hours at 37 °C and subsequently absorbance was measured at 450 nm (620 nm as a reference) with a Tecan Reader infinite® M200Pro (Tecan Group Ltd, Switzerland). Data were analyzed using Graph Pad prism (version 8.0.1) by using the point-to-point function. […] Following, dose–response curves were calculated using the point-to-point function.

[8] = test system: RKO; assay: MTT assay, 72 h, RKO; format: cell-based; settings: 72 h treatment, mean ± SD
Method: as §4, §5

[9] = test system: SW480; assay: MTT assay, 72 h, SW480; format: cell-based; settings: 72 h treatment, mean ± SD
Method: as §4, §5

[10] = test system: HT-29; assay: MTT assay, 72 h, HT-29; format: cell-based; settings: HT-29, MTT, 72 h treatment, mean ± SD
Method: as §4, §5

[11] = test system: HCT116; assay: MTT assay, 72 h, HCT116; format: cell-based; settings: mean ± SD
Method: as §4, §5

[12] = test system: HCT116/OxR; assay: MTT assay, 72 h, HCT116/OxR (oxaliplatin-resistant); format: cell-based; settings: mean ± SD
Method: as §4, §5

[13] = test system: CT26 (murine); assay: MTT assay, 72 h, CT26; format: cell-based; settings: 72 h treatment, mean ± SD
Method: as §4, §5

[14] = Preliminary oral tolerability experiments in tumor-free mice; format: in vivo; settings: p.o., equivalent to 7.5 mg kg^−1 Asa and 12.5 mg kg^−1 cisplatin
Source text: It is well known that COX-2 is involved in the paracrine signaling between immune cells, resulting in a pro-tumorigenic tumor microenvironment.[10,33] Consequently, we got interested in the impact of the Asa ligand on the anticancer activity of the drugs in vivo. Therefore, we chose immune-competent murine colon cancer CT26 allografts as test system, which were characterized by high COX-2 expression (Fig. S4 ^†). […] Thus, the experiment was stopped on day 19 due to a distinct drop in body weight in these animals. As Asa is clinically applied p.o., we tested the efficacy of OxAsaOAc and asplatin in an oral application setting. […] For the therapy experiment, the animals were treated with OxAsaOAc and asplatin for five subsequent days over two weeks. […] Consequently, we concluded that the drug doses reaching the tumor in these therapy settings were insufficient, which prompted us to aim for carrier systems with enhanced tumor-targeting properties.

[15] = Serum levels and organ distribution of platinum in CT26-bearing mice (ICP-MS); format: in vivo, Balb/c mice; settings: 24 h after single i.v. dose equimolar to 9 mg kg^−1 oxaliplatin
Method: CT26 cells (5 × 10^5 cells in 50 μl serum-free medium) were injected subcutaneously (s.c.) into the right flank of female BALB/c mice. […] After 24 h, the animals were anesthetized and blood was drawn. The animals were sacrificed by cervical dislocation and tumors as well as organs were collected for measurement with ICP-MS. To isolate serum and blood pellets, blood was centrifuged for 10 min at 3000 rpm. The supernatant characterized as serum was transferred to a new tube and centrifuged again to get rid of residual red blood cells.

[16] = test system: CT26 allografts; assay: Anticancer activity i.v. in CT26-bearing mice; format: in vivo, Balb/c mice
Method: as §1, §2

[17] = target: T1, albumin (Bos taurus, UniProt P02769); assay: Albumin binding in fetal calf serum by SEC-ICP-MS; format: in vitro ADME; settings: 100 μM in FCS (150 mM phosphate buffer, pH 7.4), 37 °C
T1 construct: Fetal calf serum was purchased from Sigma-Aldrich and buffered with 150 mM phosphate pH 7.4; tissue Sigma-Aldrich; host or cells: fetal calf serum
T1 sequence (P02769 25-607): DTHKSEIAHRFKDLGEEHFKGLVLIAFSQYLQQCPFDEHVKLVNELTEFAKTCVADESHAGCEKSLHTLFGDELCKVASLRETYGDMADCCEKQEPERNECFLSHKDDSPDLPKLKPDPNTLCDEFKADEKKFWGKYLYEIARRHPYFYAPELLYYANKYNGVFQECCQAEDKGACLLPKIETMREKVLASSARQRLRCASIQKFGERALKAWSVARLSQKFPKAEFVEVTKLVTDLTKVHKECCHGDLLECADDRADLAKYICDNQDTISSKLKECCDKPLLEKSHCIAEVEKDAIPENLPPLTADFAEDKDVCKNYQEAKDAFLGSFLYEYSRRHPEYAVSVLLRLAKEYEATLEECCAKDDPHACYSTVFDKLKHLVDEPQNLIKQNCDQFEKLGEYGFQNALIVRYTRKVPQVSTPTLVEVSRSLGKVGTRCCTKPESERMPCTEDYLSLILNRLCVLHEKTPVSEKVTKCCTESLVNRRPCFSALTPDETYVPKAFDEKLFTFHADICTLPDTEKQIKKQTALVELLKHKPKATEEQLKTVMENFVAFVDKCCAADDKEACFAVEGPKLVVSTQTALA
Method: Fetal calf serum was purchased from Sigma-Aldrich and buffered with 150 mM phosphate pH 7.4 in order to guarantee a stable pH. The platinum(IV) complexes (5 mM) were dissolved in 150 mM phosphate buffer (pH 7.4) and diluted 1 : 50 in the buffered serum to obtain a final concentration of 100 μM. The samples were then incubated in the autosampler at 37 °C and analyzed every 1 h for 6 h. Between each sample a pure water blank was measured. For SEC-ICP-MS measurements an Agilent 1260 Infinity system coupled to an Agilent 7800 ICP-MS equipped with a dynamic reaction cell was used. Oxygen (purity 5.5, Messer Austria GmbH, Gumpoldskirchen, Austria) was used as reaction gas.

[18] = Homo sapiens, HCT-116, 72 h treatment
[19] = compared to all four non-albumin-binding drugs

In the case of `CC(=O)Oc1ccccc1C(=O)O` [Asa, acetylsalicylic acid], the “Response of tumor model (tumor growth)” value [1] is reported as “responsiveness”, the “Impact on tumor growth” value ([2]; Asa 15 mg kg^−1 p.o.) is reported as “no impact on tumor growth” and the “Hydrolysis of Asa to salicylic acid” value [3] is reported as “more than half of Asa was hydrolyzed to salicylic acid”.

For `CC(=O)Oc1ccccc1C(=O)[O][Pt]([OH])([Cl])[Cl].N.N` [Asplatin], the “Stability in aqueous solution” value [4] was “high stability”, the “Remaining intact platinum(IV) complex at 1 h” value ([5]; 1 mM, 250 mM phosphate buffer pH 7.4, 20 °C, 10 eq. ascorbic acid, 1 h) was “no remaining intact platinum(IV) complex could be observed” and the “Free salicylic acid in serum, share of administered dose” value ([6]; 10 min after single i.v. dose equimolar to 9 mg kg^−1 oxaliplatin, tumor-free Balb/c mice) was about 30 mol%. For the same compound, the “Salicylic acid level in serum” value ([6]; 24 h after single i.v. dose equimolar to 9 mg kg^−1 oxaliplatin, below LOD) was under 3 µM, the IC50 [7] was 6.4 ± 1.1 µM and the IC50 [8] was 0.9 µM. It also gave an IC50 [9] of 0.6 ± 0.1 µM, an IC50 [10] of 9.2 ± 0.6 µM and an IC50 ([11]; 72 h treatment) of 2.2 ± 0.1 µM. For the same compound, the IC50 ([12]; 72 h treatment) was 8.7 ± 1.8 µM, the IC50 [13] was 2.5 ± 0.2 µM and the “Oral dose that could be used (tolerability)” value [14] was 20.7 mg/kg. The “Impact on tumor growth” value ([2]; asplatin 20.7 mg kg^−1 p.o., five subsequent days over two weeks) was “none of the drugs had any impact on tumor growth”, the “Platinum levels in liver and kidney” value [15] was “exceptionally high” and the Toxicity i.v. ([16]; reason for lower i.v. dose equimolar to 3 mg kg^−1 cisplatin) was “high toxicity”.

`Cc1ccc(-c2cc(C(F)(F)F)nn2-c2ccc(S(N)(=O)=O)cc2)cc1` [Celecoxib] gave an IC50 ([7]; Homo sapiens) of 79.2 ± 3.6 µM, an IC50 ([8]; Homo sapiens) of 79.3 ± 4.9 µM and an IC50 ([9]; Homo sapiens) of 83.1 ± 1.5 µM. The IC50 ([10]; Homo sapiens) was 68 ± 6.4 µM, the IC50 [11, 18] was 76.2 ± 4.3 µM and the IC50 [12, 18] was 79.2 ± 2.7 µM. The IC50 ([13]; Mus musculus) was 60.9 ± 2.5 µM.

Work on `N.N.[Cl][Pt][Cl]` [Cisplatin, cisplatin] yielded an IC50 [8] of 1.6 ± 0.3 µM, an IC50 [9] of 7.8 ± 1.3 µM and an IC50 [10] of 10.1 ± 0.3 µM. The IC50 ([11]; 72 h treatment) was 3.1 ± 0.5 µM, the IC50 ([12]; 72 h treatment) was 10.4 ± 1.8 µM and the IC50 [13] was 1.2 ± 0.2 µM.

With `CC(=O)[O][Pt-2]12([O]C(C)=O)([NH2+][C@@H]3CCCC[C@H]3[NH2+]1)[O]C(=O)C(=O)[O]2` [Ox(OAc)2] the “Stability in aqueous solution” value [4] was “high stability”, the “Intact complex after 6 h” value ([5]; 1 mM, 250 mM phosphate buffer pH 7.4, 20 °C, 10 eq. ascorbic acid, 6 h) was 97% and the “Intact complex after 24 h” value ([5]; 1 mM, 250 mM phosphate buffer pH 7.4, 20 °C, 10 eq. ascorbic acid, 24 h) was 81%. The IC50 [8] was 9 ± 1 µM, the IC50 [9] was 13.2 ± 2.5 µM and the IC50 [10] was 136 ± 34.6 µM. It also gave an IC50 ([11]; 72 h treatment) of 17.4 ± 2.4 µM, an IC50 ([12]; 72 h treatment) of over 100 µM and an IC50 [13] of 22.5 ± 2.8 µM.

For `CC(=O)Oc1ccccc1C(=O)[O][Pt-2]12([O]C(=O)NCCOCCOCCOCCOCCN3C(=O)C=CC3=O)([NH2+][C@@H]3CCCC[C@H]3[NH2+]1)[O]C(=O)C(=O)[O]2` [OxAsaMal, (OC-6-34)-(2-acetoxybenzoato)[(1R,2R)-1,2-cyclohexanediamino]oxalato[(14-(2,5-dioxo-2,5-dihydro-1H-pyrrol-1-yl)-3,6,9,12-tetraoxatetradecyl)carbamato]platinum(IV)], the “Stability of the platinum core” value ([4]; phosphate-buffered saline (PBS) pH 7.4, 24 h) was “high stability of the platinum core”, the “Reduction behavior (monitored by released Asa and oxaliplatin)” value ([5]; in the presence of ascorbic acid, comparable to OxAsaOAc) was “slow reduction behavior” and the “Fraction bound to the albumin fraction” value ([17]; 0 h time point) was 77%. For the same compound, the “Fraction bound to the albumin fraction” value ([17]; after 1 h) was 95%, the Platinum plasma levels [15, 19] was “significantly higher plasma levels” and the “Tumor accumulation of platinum” value [15, 19] was “higher tumor accumulation”. The Prolonged overall survival ([16]; i.v., 4-times over 2 weeks, dose equimolar to 9 mg kg^−1 oxaliplatin, CT26) was about 20 days, the “Tolerability (body weight)” value ([16]; i.v., 4-times over 2 weeks, doses equimolar to 9 mg kg^−1 oxaliplatin) was “well tolerated” and the “Anticancer activity (tumor growth, overall survival)” value ([16]; i.v., 4-times over 2 weeks, doses equimolar to 9 mg kg^−1 oxaliplatin, CT26) was “long-lasting disease control over several days”.
